{
  "source": "patent US9713602B1",
  "about": "“Method for facilitating the oxygen release of hemoglobin-based blood substitutes” (National Sun Yat-sen University, priority 2016, dated 2017)",
  "key": {"hemoglobin": {"biological_target": "hemoglobin (Homo sapiens, UniProt P68871+P69905)", "sequence (P69905 2-142 limits assumed)": "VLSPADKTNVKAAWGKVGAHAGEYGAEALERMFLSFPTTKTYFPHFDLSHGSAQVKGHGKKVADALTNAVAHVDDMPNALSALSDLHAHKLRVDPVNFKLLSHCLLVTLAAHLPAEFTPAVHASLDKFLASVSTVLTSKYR", "sequence (P68871 2-147 limits assumed)": "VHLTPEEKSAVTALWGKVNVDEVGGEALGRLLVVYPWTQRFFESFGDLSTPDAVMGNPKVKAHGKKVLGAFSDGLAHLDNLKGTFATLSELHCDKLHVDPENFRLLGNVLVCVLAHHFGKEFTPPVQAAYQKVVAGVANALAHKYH", "test": "oxygen equilibrium curves / P50 value of hemoglobin", "type": "biochemical", "details": "for effect with 2,3-BPG in modulating hemoglobin allostery: FIG. 2"}, "fetal hemoglobin (HbF)": {"biological_target": "fetal hemoglobin (HbF) (Homo sapiens, UniProt P69892+P69905)", "sequence (P69905 2-142 limits assumed)": "as the sequence (P69905 2-142 limits assumed) above", "sequence (P69892 2-147 limits assumed)": "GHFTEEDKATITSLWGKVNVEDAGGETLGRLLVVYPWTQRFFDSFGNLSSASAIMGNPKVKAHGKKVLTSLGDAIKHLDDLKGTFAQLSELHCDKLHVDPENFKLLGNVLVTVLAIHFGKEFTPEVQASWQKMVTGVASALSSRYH", "test": "oxygen equilibrium curves / P50 value of fetal hemoglobin (HbF)", "type": "biochemical", "details": "for shift of the oxygen equilibrium curve of fetal hemoglobin (HbF): 0.6-4.0 mM compound with 0.6 or 2.5 mM 2,3-BPG (FIG. 9, 10); for oxygen affinity modulating effect (increase of P50 value) on fetal hemoglobin compared with 2,3-BPG: FIG. 8, varying concentrations; for oxygen release efficiency of fetal hemoglobin (HbF) relative to normal hemoglobin: with 2,3-BPG (FIG. 9, 10)"}},
  "note": "Entries after “also recorded” stand apart in the source; their conditions may differ.",
  "data": [
    {"smiles": "O=C(O)C(COP(=O)(O)O)OP(=O)(O)O", "note": "(centres unmarked) [2,3-BPG, 2,3-bisphosphorglycerate]", "values": [
      {"measurement": "oxygen release efficiency of hemoglobin", "setting": "hemoglobin; 1.2 mM 2,3-BPG, PO2 20 mmHg", "result": 40, "unit": "%"},
      {"measurement": "oxygen saturation fraction of hemoglobin", "setting": "hemoglobin; 1.2 mM 2,3-BPG, PO2 20 mmHg (FIG. 7)", "result": "approximately 60%"},
      {"measurement": "oxygen saturation fraction of hemoglobin", "setting": "hemoglobin; 12 mM 2,3-BPG, fixed oxygen partial pressure of 20 mmHg, 80% where no 2,3-BPG is present", "result": 35, "unit": "%"},
      {"measurement": "oxygen release efficiency of hemoglobin", "setting": "hemoglobin; 12 mM 2,3-BPG, oxygen partial pressure 20 mmHg, 20% without 2,3-BPG", "result": 65, "unit": "%"},
      {"measurement": "P50 value of hemoglobin", "setting": "hemoglobin; approximately 4 mM 2,3-BPG, no phthalide compound", "result": 18.8, "unit": "mmHg"},
      {"measurement": "oxygen release efficiency of normal cells", "setting": "hemoglobin; varying concentrations of 2,3-BPG, PO2 of normal cells, from 20%", "result": "~65", "unit": "%"},
      {"measurement": "oxygen saturation fraction of hemoglobin", "setting": "hemoglobin; varying concentrations of 2,3-BPG, brain physiological PO2 (33.8±2.6 mmHg), from 90% (FIG. 4)", "result": "~70", "unit": "%"},
      {"measurement": "oxygen release efficiency of hemoglobin", "setting": "hemoglobin; varying concentrations of 2,3-BPG, brain physiological PO2, from 10%", "result": 30, "unit": "%"},
      {"measurement": "modulating effect of 2,3-BPG on fetal hemoglobin (HbF) relative to normal hemoglobin", "setting": "fetal hemoglobin (HbF)", "result": "not as effective as that on the normal hemoglobin"}
    ]},
    {"smiles": "CCC/C=C1\\OC(=O)c2ccccc21", "note": "[Z-butylidenephthalide]", "values": [
      {"measurement": "shift of the oxygen equilibrium curve of fetal hemoglobin (HbF)", "setting": "fetal hemoglobin (HbF)", "result": "effectively shift the oxygen equilibrium curve for the fetal hemoglobin (HbF) to the right; also recorded: effectively shift the oxygen equilibrium curve of the fetal hemoglobin (HbF) to the right"},
      {"measurement": "oxygen affinity modulating effect (increase of P50 value) on fetal hemoglobin compared with 2,3-BPG", "setting": "fetal hemoglobin (HbF)", "result": "stronger modulating effect than 2,3-BPG; also recorded: higher than that of 2,3-BPG"},
      {"measurement": "oxygen release efficiency of fetal hemoglobin (HbF) relative to normal hemoglobin", "setting": "fetal hemoglobin (HbF)", "result": "achieve the same oxygen release efficiency as the normal hemoglobin"}
    ]},
    {"smiles": "CCC/C=C1\\OC(=O)C2=C1CCC=C2", "note": "[Z-ligustilide]", "values": [
      {"measurement": "effect with 2,3-BPG in modulating hemoglobin allostery", "setting": "hemoglobin", "result": "synergistic effect"},
      {"measurement": "shift of the oxygen equilibrium curve of fetal hemoglobin (HbF)", "setting": "fetal hemoglobin (HbF)", "result": "effectively shift the oxygen equilibrium curve for the fetal hemoglobin (HbF) to the right"},
      {"measurement": "oxygen affinity modulating effect (increase of P50 value) on fetal hemoglobin compared with 2,3-BPG", "setting": "fetal hemoglobin (HbF)", "result": "stronger modulating effect than 2,3-BPG; also recorded: higher than that of 2,3-BPG"},
      {"measurement": "oxygen release efficiency of fetal hemoglobin (HbF) relative to normal hemoglobin", "setting": "fetal hemoglobin (HbF)", "result": "achieve the same oxygen release efficiency as the normal hemoglobin"}
    ]},
    {"smiles": "CCC/C=C1\\OC(=O)C2=C1CC[C@@H](O)[C@@H]2O", "note": "[senkyunolide I]", "values": [
      {"measurement": "effect with 2,3-BPG in modulating hemoglobin allostery", "setting": "hemoglobin", "result": "synergistic effect"}
    ]}
  ]
}
